Experimental data as given in the supplement of paper PMC6045584.
± gives the standard deviation of the averaged measurements.

Columns and labels:
PLX-4720 = compound: CCCS(=O)(=O)Nc1ccc(F)c(C(=O)c2c[nH]c3ncc(Cl)cc23)c1F [PLX-4720]; assay: surviving fraction relative to DMSO-only wells; higher = less growth inhibition; conditions: exposure time: 5 days
Procedure, shortened: (§1)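 Viability was determined by CellTiter-Glo luminescence, expressed as surviving fraction normalised to the median of DMSO-only wells. The cells were log-phase tumour cell lines seeded at 250–500 per well in 384-well plates and, after 24 hours, exposed continuously for five days to inhibitors at 0.5, 1, 5, 10, 50, 100, 500 and 1000 nM. Three screens per line were run, keeping only lines with replicate Pearson r >0.7 and median Z' >0.3.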

MK0752 = compound: O=C(O)CC[C@H]1CC[C@@](c2cc(F)ccc2F)(S(=O)(=O)c2ccc(Cl)cc2)CC1 [MK0752]; assay: as above; conditions: exposure time: 5 days
Procedure, shortened: as §1

Test System | surviving fraction (PLX-4720; 0.5 nM) | surviving fraction (PLX-4720; 1 nM) | surviving fraction (PLX-4720; 5 nM) | surviving fraction (PLX-4720; 10 nM) | surviving fraction (PLX-4720; 50 nM) | surviving fraction (PLX-4720; 100 nM) | surviving fraction (PLX-4720; 500 nM) | surviving fraction (PLX-4720; 1000 nM) | surviving fraction (MK0752; 0.5 nM) | surviving fraction (MK0752; 1 nM) | surviving fraction (MK0752; 5 nM) | surviving fraction (MK0752; 10 nM) | surviving fraction (MK0752; 50 nM) | surviving fraction (MK0752; 100 nM) | surviving fraction (MK0752; 500 nM) | surviving fraction (MK0752; 1000 nM)
SG43 HEADNECK | 1.26 ± 0.34 | 1.19 ± 0.013 | 1.09 ± 0.053 | 1 ± 0.1 | 1.13 ± 0.13 | 1.27 ± 0.15 | 1.65 ± 0.22 | 1.7 ± 0.078 | 0.854 ± 0.3 | 0.901 ± 0.056 | 1.07 ± 0.43 | 0.862 ± 0.29 | 1.03 ± 0.18 | 0.934 ± 0.16 | 1.61 ± 0.055 | 1.08 ± 0.19
SIHA CERVIX | 0.908 ± 0.016 | 0.877 ± 0.034 | 0.909 ± 0.041 | 0.995 ± 0.034 | 0.993 ± 0.022 | 1.07 ± 0.068 | 1.06 ± 0.041 | 1.09 ± 0.055 | 1.1 ± 0.046 | 1.15 ± 0.024 | 1.12 ± 0.044 | 1.15 ± 0.053 | 1.15 ± 0.025 | 1.21 ± 0.085 | 1.16 ± 0.11 | 1.14 ± 0.051
SJSA1 BONE | 0.89 ± 0.025 | 0.914 ± 0.026 | 0.904 ± 0.028 | 0.948 ± 0.025 | 1.03 ± 0.033 | 1.03 ± 0.062 | 0.998 ± 0.059 | 0.955 ± 0.074 | 1 ± 0.03 | 1.09 ± 0.044 | 1.02 ± 0.089 | 1.09 ± 0.06 | 1.08 ± 0.036 | 1.14 ± 0.02 | 1.03 ± 0.027 | 1.07 ± 0.044
SKBR3 BREAST | 0.838 ± 0.027 | 0.81 ± 0.098 | 0.819 ± 0.14 | 0.813 ± 0.15 | 1.05 ± 0.12 | 1.01 ± 0.15 | 0.986 ± 0.17 | 0.892 ± 0.14 | 0.854 ± 0.14 | 1.05 ± 0.18 | 1.02 ± 0.06 | 0.917 ± 0.086 | 1.11 ± 0.092 | 1.08 ± 0.05 | 0.961 ± 0.11 | 1.06 ± 0.11
SNU475 LIVER | 0.358 ± 0.028 | 0.806 ± 0.029 | 0.674 ± 0.01 | 0.808 ± 0.02 | 0.392 ± 0.029 | 0.919 ± 0.021 | 0.839 ± 0.024 | 1 ± 0.055 | 1.06 ± 0.028 | 1 ± 0.036 | 0.97 ± 0.052 | 1.02 ± 0.011 | 1.01 ± 0.019 | 1.03 ± 0.036 | 1.03 ± 0.037 | 0.965 ± 0.036
SUM44 BREAST | 0.9 ± 0.025 | 0.868 ± 0.058 | 0.932 ± 0.011 | 0.969 ± 0.022 | 1.07 ± 0.072 | 1.02 ± 0.052 | 0.946 ± 0.045 | 0.92 ± 0.03 | 0.998 ± 0.06 | 0.992 ± 0.035 | 0.983 ± 0.033 | 1.015 ± 0.0072 | 1.04 ± 0.051 | 1.09 ± 0.025 | 1.02 ± 0.031 | 1.05 ± 0.03
SUM149 BREAST |  |  |  | 0.827 ± 0.063 | 0.289 ± 0.02 | 0.991 ± 0.094 | 0.821 ± 0.05 | 0.919 ± 0.011 | 0.927 ± 0.072 | 0.995 ± 0.09 | 1.03 ± 0.062 | 1.05 ± 0.03 | 1.01 ± 0.08 | 0.98 ± 0.15 | 0.884 ± 0.014 | 0.935 ± 0.068
SUM149.B1*.S BREAST | 0.392 ± 0.028 | 0.793 ± 0.046 | 0.787 ± 0.036 | 0.8912 ± 0.0055 | 0.517 ± 0.056 | 0.968 ± 0.042 | 0.863 ± 0.038 | 1.02 ± 0.015 | 1.11 ± 0.05 | 1.12 ± 0.044 | 1.1 ± 0.041 | 1.117 ± 0.004 | 1.18 ± 0.046 | 1.2 ± 0.029 | 1.03 ± 0.045 | 1.06 ± 0.068
SUM159 BREAST | 1.04 ± 0.28 | 1.08 ± 0.28 | 1.04 ± 0.21 | 1.08 ± 0.23 | 1.08 ± 0.25 | 1.1 ± 0.26 | 1.1 ± 0.24 | 1.11 ± 0.21 | 1.16 ± 0.12 | 1.15 ± 0.098 | 1.13 ± 0.075 | 1.13 ± 0.085 | 1.06 ± 0.044 | 1.11 ± 0.022 | 1.13 ± 0.057 | 1.11 ± 0.035
SYO1 SYNOVIAL | 0.336 ± 0.15 | 0.772 ± 0.089 | 0.658 ± 0.089 | 0.809 ± 0.043 | 0.408 ± 0.14 | 0.942 ± 0.017 | 0.865 ± 0.11 | 0.988 ± 0.061 | 1 ± 0.024 | 0.981 ± 0.029 | 0.9374 ± 0.0056 | 1 ± 0.042 | 1.04 ± 0.082 | 1.01 ± 0.02 | 0.98 ± 0.052 | 0.971 ± 0.018
T47D BREAST | 0.81 ± 0.036 | 0.921 ± 0.0064 | 0.919 ± 0.043 | 0.953 ± 0.025 | 0.914 ± 0.015 | 1.04 ± 0.06 | 0.994 ± 0.021 | 1.01 ± 0.043 | 1.07 ± 0.025 | 1.07 ± 0.011 | 1.04 ± 0.022 | 1.1 ± 0.015 | 1.11 ± 0.071 | 1.14 ± 0.018 | 1.09 ± 0.044 | 1.11 ± 0.02
U2OS BONE | 0.914 ± 0.029 | 0.9627 ± 0.0058 | 0.949 ± 0.007 | 0.978 ± 0.035 | 1.06 ± 0.054 | 1.08 ± 0.059 | 1.07 ± 0.026 | 1.1 ± 0.039 | 1.05 ± 0.06 | 1.06 ± 0.015 | 1.08 ± 0.019 | 1.08 ± 0.034 | 1.1 ± 0.075 | 1.18 ± 0.031 | 1.02 ± 0.041 | 1.04 ± 0.058
VCAP PROSTATE | 0.915 ± 0.03 | 0.942 ± 0.048 | 0.934 ± 0.031 | 0.986 ± 0.074 | 0.966 ± 0.01 | 1.11 ± 0.14 | 1.08 ± 0.061 | 1.07 ± 0.023 | 1.04 ± 0.051 | 1.15 ± 0.15 | 1.11 ± 0.14 | 1.19 ± 0.13 | 1.12 ± 0.065 | 1.22 ± 0.12 | 1.14 ± 0.076 | 1.12 ± 0.15
VP229 BREAST | 0.861 ± 0.03 | 0.838 ± 0.056 | 0.861 ± 0.055 | 0.887 ± 0.019 | 1.03 ± 0.065 | 1.1 ± 0.068 | 1.248 ± 0.0097 | 1.25 ± 0.13 | 1.39 ± 0.087 | 1.15 ± 0.2 | 1.13 ± 0.092 | 1.17 ± 0.07 | 1.1 ± 0.2 | 1.05 ± 0.14 | 1.01 ± 0.14 | 0.901 ± 0.084
YAMATO SYNOVIAL | 0.15 ± 0.019 | 0.825 ± 0.054 | 0.619 ± 0.023 | 0.919 ± 0.055 | 0.281 ± 0.024 | 1.28 ± 0.086 | 0.874 ± 0.083 | 1.24 ± 0.091 | 1.34 ± 0.1 | 1.39 ± 0.13 | 1.51 ± 0.082 | 1.39 ± 0.058 | 1.49 ± 0.12 | 1.46 ± 0.11 | 1.49 ± 0.063 | 1.41 ± 0.1
ZR751 BREAST | 0.774 ± 0.021 | 0.834 ± 0.051 | 0.768 ± 0.062 | 0.811 ± 0.078 | 0.783 ± 0.08 | 0.826 ± 0.099 | 0.949 ± 0.086 | 0.947 ± 0.061 | 1.21 ± 0.034 | 1.15 ± 0.031 | 1.13 ± 0.13 | 1.06 ± 0.089 | 1.09 ± 0.041 | 1.17 ± 0.083 | 1.14 ± 0.15 | 1.25 ± 0.24
